From paper PMC7615677 (Science translational medicine, 2023)
Read-outs that look alike come from different tables or passages of the source.

Experiments:
[1] = In vitro metabolism, liver microsomes; type: in vitro ADME, human
Method: Compounds were spiked into microsomal matrix prepared in 0.1 M pH 7.4 phosphate buffer containing magnesium chloride (final concentration of 3.3 mM), equilibrated for 5-10 min at 37°C. The reaction was initiated with the addition of freshly prepared solution of NADPH (final 1.3 mM). Control samples without co-factor were included for comparison. Aliquots of the reaction mixtures were taken periodically over 60 min and quenched with acetonitrile containing internal standards (metolazone and diazepam). Quenched samples were maintained on ice for approximately 20-30 min, centrifuged (for 5 min) and the supernatant was analyzed by LC-MS.
In vitro intrinsic clearance (CLint, μL/min/mg or μL/min/10^6 cells) values were calculated from the apparent first order degradation rate constant divided by the microsome concentration or the hepatocyte cell number (10^6 viable cells/mL). In vitro CLint values were then divided by the fraction unbound in the in vitro test system (to give CLint,u) and scaled to in vivo values (mL/min/kg) using published physiological scaling factors ([28]). Blood clearance in each species was then calculated using the well-stirred model of hepatic extraction (equation 2) where Q is the hepatic blood flow and fu,blood is calculated from fu,plasma/B:P: [2] PredictedCLblood=Q x fu,blood x CLint,u/Q+fu,blood x CLint,u
Blood clearance values were converted to plasma clearance by multiplying by the B:P.

[2] = Compartmental PK modelling and repeat-dose simulation; set-up: species or system hamsters
Method: To support pharmacokinetic/pharmacodynamic (PKPD) analysis, data in mice and hamsters were also analyzed by compartmental modeling using Phoenix WinNonlin (version 8.2; Certara, Princeton, NJ). For each dose level, an extravascular dosing, single compartment disposition model was fit to the combined Day 1/Day 5 repeat dose plasma data. The model was parameterized with a single volume term (V/F), and with first order absorption (K01) and elimination (K10) rate constants. Initial values for the parameter estimates were obtained by fitting of the model to the Day 1 data at the lowest dose level only, and the same initial values were used across the dose range. Experimental data used in model fitting were the mean concentration-time profiles and the average dose administered to each group. The weighting scheme (1/Y2 for mouse and 1/Y for hamster) was selected based on goodness of fit of the peak region of the experimental profiles. Parameter estimates obtained through fitting were used to simulate full repeat-dose plasma concentration-time profiles with both once-daily and twice-daily (dosing at […]) administration at each dose level and treatment duration used in the efficacy studies.

5-HT transporter = target: T1, 5-HT transporter (Homo sapiens, UniProt P31645); test: In vitro pharmacology panel (Eurofins); type: binding; conditions: read-out: activity (% of DMSO control)
T1 construct: purchased Eurofins (Cerep/DiscoverX SafetyScreen44 in vitro pharmacology panel)
Source text: (§1) Listed values represent the percent change relative to the DMSO control activity. When an IC50 had to be determined, eight different concentrations were included. All values are the mean of assay readout duplicates.

5-HT2B = target: T2, 5-HT2B (Homo sapiens, UniProt P41595); test: In vitro pharmacology panel (Eurofins); type: binding; conditions: read-out: activity (% of DMSO control)
T2 construct: purchased Eurofins (Cerep/DiscoverX SafetyScreen44 in vitro pharmacology panel)
Source text: as §1

5-HT3 = target: T3, 5-HT3 (Homo sapiens, UniProt P46098); test: In vitro pharmacology panel (Eurofins); type: binding; conditions: read-out: activity (% of DMSO control)
T3 construct: purchased Eurofins (Cerep/DiscoverX SafetyScreen44 in vitro pharmacology panel)
Source text: as §1

A2A = target: T4, A2A (Homo sapiens, UniProt P29274); test: In vitro pharmacology panel (Eurofins); type: binding; conditions: read-out: activity (% of DMSO control)
T4 construct: purchased Eurofins (Cerep/DiscoverX SafetyScreen44 in vitro pharmacology panel)
Source text: as §1

CB2 = target: T5, CB2 (Homo sapiens, UniProt P34972); test: In vitro pharmacology panel (Eurofins); type: binding; conditions: read-out: activity (% of DMSO control)
T5 construct: purchased Eurofins (Cerep/DiscoverX SafetyScreen44 in vitro pharmacology panel)
Source text: as §1

GR = target: T6, GR (Homo sapiens, UniProt P04150); test: In vitro pharmacology panel (Eurofins); type: binding; conditions: read-out: activity (% of DMSO control)
T6 construct: purchased Eurofins (Cerep/DiscoverX SafetyScreen44 in vitro pharmacology panel)
Source text: as §1

H1 = target: T7, H1 (Homo sapiens, UniProt P35367); test: In vitro pharmacology panel (Eurofins); type: binding; conditions: read-out: activity (% of DMSO control)
T7 construct: purchased Eurofins (Cerep/DiscoverX SafetyScreen44 in vitro pharmacology panel)
Source text: as §1

H2 = target: T8, H2 (Homo sapiens, UniProt P25021); test: In vitro pharmacology panel (Eurofins); type: binding; conditions: read-out: activity (% of DMSO control)
T8 construct: purchased Eurofins (Cerep/DiscoverX SafetyScreen44 in vitro pharmacology panel)
Source text: as §1

M1 = target: T9, M1 (Homo sapiens, UniProt P11229); test: In vitro pharmacology panel (Eurofins); type: binding; conditions: read-out: activity (% of DMSO control)
T9 construct: purchased Eurofins (Cerep/DiscoverX SafetyScreen44 in vitro pharmacology panel)
Source text: as §1

N neuronal α4β2 = target: T10, N neuronal α4β2 (Homo sapiens, UniProt P17787+P43681); test: In vitro pharmacology panel (Eurofins); type: binding; conditions: read-out: activity (% of DMSO control)
T10 construct: purchased Eurofins (Cerep/DiscoverX SafetyScreen44 in vitro pharmacology panel)
Source text: as §1

α1A = target: T11, α1A (Homo sapiens, UniProt P35348); test: In vitro pharmacology panel (Eurofins); type: binding; conditions: read-out: activity (% of DMSO control)
T11 construct: purchased Eurofins (Cerep/DiscoverX SafetyScreen44 in vitro pharmacology panel)
Source text: as §1

β2 = target: T12, β2 (Homo sapiens, UniProt P07550); test: In vitro pharmacology panel (Eurofins); type: binding; conditions: read-out: activity (% of DMSO control)
T12 construct: purchased Eurofins (Cerep/DiscoverX SafetyScreen44 in vitro pharmacology panel)
Source text: as §1

κ (KOP) = target: T13, κ (KOP) (Rattus norvegicus, UniProt P34975); test: In vitro pharmacology panel (Eurofins); type: binding; conditions: read-out: activity (% of DMSO control)
T13 construct: purchased Eurofins (Cerep/DiscoverX SafetyScreen44 in vitro pharmacology panel)
Source text: as §1

μ (MOP) = target: T14, μ (MOP) (Homo sapiens, UniProt P35372); test: In vitro pharmacology panel (Eurofins); type: binding; conditions: read-out: activity (% of DMSO control)
T14 construct: purchased Eurofins (Cerep/DiscoverX SafetyScreen44 in vitro pharmacology panel)
Source text: as §1

[3] = hamster, plasma, po, Hamsters, 12.5 mg/kg, fitted
[4] = hamster, plasma, po, Hamsters, 25 mg/kg, fitted
[5] = hamster, plasma, po, Hamsters, 50 mg/kg, fitted
[6] = hamsters, 3.125 mg/kg bid, 5 days, simulated
[7] = hamsters, 12.5 mg/kg bid, 5 days, simulated
[8] = hamsters, 12.5 mg/kg qd, 5 days, simulated
[9] = hamsters, 25 mg/kg qd, 5 days, simulated
[10] = hamsters, 50 mg/kg qd, 5 days, simulated

T3 sequence (P46098 24-478): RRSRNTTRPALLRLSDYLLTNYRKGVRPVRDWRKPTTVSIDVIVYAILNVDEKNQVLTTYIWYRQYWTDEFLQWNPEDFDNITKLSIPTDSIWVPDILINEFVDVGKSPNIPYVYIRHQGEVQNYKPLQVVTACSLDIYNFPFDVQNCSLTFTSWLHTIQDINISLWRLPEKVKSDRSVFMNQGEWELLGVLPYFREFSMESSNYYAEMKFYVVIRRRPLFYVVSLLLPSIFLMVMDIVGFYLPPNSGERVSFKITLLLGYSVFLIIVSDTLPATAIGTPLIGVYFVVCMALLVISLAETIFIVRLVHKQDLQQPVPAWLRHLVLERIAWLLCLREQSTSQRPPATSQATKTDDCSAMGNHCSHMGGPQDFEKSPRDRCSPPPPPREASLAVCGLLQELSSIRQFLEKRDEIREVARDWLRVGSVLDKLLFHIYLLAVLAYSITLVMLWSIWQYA
T14 sequence (P35372 whole entry): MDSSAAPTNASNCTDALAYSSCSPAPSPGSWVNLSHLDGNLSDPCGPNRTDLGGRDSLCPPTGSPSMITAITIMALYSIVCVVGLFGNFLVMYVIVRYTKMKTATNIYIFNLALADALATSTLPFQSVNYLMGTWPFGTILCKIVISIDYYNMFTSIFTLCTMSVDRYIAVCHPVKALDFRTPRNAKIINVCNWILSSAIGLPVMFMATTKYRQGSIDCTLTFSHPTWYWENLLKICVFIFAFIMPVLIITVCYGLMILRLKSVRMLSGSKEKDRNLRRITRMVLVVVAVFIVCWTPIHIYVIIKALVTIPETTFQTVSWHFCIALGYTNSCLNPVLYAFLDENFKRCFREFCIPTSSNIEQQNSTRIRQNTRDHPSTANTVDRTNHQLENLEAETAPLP
T5 sequence (P34972 whole entry): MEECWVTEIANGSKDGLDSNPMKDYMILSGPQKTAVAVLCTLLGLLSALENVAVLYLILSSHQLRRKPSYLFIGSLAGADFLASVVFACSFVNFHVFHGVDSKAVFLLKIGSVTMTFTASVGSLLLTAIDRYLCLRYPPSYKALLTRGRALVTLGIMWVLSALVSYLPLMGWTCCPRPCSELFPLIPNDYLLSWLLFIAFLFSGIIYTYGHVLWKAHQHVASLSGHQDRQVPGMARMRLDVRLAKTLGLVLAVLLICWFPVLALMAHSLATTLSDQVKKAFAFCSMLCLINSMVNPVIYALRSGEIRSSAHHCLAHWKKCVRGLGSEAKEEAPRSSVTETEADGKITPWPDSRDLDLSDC
T4 sequence (P29274 whole entry): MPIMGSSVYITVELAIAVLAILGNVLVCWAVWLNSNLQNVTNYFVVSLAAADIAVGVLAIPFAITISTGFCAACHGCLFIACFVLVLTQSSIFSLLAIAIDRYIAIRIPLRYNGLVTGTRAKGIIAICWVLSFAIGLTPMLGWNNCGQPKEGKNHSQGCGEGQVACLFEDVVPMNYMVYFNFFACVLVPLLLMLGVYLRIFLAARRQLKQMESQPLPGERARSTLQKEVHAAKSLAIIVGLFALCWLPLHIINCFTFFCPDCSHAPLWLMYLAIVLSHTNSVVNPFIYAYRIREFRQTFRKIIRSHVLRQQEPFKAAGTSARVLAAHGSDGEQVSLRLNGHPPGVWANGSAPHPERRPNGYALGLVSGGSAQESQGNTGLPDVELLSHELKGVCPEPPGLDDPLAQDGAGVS
T7 sequence (P35367 whole entry): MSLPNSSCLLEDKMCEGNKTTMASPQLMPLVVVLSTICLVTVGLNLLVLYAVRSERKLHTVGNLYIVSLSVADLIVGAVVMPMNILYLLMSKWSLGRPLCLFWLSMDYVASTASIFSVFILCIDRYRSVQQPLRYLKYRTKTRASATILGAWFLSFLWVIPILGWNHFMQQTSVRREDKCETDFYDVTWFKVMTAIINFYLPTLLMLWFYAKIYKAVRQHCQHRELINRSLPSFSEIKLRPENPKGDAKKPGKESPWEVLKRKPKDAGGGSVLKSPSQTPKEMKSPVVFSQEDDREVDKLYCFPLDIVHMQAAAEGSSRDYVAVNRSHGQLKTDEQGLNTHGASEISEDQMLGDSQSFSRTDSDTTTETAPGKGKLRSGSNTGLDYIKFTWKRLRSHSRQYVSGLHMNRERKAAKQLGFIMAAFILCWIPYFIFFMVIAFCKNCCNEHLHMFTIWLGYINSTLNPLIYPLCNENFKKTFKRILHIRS
T6 sequence (P04150 whole entry): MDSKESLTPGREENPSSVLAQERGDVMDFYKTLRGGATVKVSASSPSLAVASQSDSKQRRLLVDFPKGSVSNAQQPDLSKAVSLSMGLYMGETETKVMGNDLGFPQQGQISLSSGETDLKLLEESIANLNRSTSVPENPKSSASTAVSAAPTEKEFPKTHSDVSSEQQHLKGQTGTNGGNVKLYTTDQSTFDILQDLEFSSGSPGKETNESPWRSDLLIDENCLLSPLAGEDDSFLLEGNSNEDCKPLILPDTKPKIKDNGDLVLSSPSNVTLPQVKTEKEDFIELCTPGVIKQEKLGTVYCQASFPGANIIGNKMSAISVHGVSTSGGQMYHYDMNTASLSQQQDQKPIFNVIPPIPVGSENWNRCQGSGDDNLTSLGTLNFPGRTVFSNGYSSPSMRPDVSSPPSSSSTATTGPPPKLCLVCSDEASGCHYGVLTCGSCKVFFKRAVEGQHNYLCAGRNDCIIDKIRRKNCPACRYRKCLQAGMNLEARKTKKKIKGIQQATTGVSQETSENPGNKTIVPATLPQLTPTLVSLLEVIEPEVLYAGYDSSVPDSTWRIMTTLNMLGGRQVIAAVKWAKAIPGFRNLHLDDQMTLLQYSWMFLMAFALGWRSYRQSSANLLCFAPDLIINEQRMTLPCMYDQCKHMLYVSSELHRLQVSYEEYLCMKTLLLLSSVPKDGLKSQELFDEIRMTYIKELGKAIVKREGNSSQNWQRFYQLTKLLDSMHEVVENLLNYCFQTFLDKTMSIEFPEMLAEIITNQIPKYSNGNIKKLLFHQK
T13 sequence (P34975 whole entry): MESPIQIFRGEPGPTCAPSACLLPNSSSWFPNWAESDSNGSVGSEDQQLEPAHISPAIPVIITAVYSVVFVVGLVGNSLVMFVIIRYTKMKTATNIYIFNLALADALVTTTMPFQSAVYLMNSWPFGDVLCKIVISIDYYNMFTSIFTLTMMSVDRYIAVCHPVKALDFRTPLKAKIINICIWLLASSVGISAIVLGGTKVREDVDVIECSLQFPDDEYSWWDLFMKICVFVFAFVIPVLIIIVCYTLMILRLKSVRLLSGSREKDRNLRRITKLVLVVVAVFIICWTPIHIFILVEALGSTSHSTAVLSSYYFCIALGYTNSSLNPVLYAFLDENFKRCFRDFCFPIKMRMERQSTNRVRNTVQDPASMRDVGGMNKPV
T12 sequence (P07550 whole entry): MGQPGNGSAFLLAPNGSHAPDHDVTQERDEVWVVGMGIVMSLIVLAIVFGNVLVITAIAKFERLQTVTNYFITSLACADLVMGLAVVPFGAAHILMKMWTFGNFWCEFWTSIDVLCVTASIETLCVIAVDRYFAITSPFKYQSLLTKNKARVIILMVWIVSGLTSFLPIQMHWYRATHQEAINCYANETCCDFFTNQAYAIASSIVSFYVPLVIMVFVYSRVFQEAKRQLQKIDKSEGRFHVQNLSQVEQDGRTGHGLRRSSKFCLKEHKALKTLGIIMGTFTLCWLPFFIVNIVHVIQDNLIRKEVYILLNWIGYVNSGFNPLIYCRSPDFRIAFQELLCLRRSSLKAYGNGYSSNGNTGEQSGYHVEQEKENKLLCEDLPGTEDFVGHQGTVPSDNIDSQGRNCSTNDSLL
T2 sequence (P41595 whole entry): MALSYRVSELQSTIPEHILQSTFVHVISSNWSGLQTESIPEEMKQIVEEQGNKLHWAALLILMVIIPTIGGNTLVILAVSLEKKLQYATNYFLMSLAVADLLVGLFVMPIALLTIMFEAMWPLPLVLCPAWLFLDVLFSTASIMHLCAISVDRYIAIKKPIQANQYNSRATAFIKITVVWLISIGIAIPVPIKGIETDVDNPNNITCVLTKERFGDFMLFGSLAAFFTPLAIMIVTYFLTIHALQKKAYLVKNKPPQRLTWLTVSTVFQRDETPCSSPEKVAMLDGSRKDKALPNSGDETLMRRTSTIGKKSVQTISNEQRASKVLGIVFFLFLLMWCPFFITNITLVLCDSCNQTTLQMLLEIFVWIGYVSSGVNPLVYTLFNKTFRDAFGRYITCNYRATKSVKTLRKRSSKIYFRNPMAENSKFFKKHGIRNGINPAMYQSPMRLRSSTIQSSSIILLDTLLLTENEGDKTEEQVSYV
T11 sequence (P35348 whole entry): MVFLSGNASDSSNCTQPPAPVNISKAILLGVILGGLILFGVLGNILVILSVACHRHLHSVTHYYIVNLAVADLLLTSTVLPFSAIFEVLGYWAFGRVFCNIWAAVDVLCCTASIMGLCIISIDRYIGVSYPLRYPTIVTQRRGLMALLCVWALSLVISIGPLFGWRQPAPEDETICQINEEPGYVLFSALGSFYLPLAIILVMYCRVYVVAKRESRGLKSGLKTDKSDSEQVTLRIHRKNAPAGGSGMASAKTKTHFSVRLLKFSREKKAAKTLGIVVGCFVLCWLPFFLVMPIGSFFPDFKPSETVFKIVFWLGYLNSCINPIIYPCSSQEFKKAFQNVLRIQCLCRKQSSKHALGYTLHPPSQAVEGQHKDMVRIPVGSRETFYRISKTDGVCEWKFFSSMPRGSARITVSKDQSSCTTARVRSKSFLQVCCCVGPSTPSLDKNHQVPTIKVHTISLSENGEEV

In the case of `Cc1[nH]c2nc(N)nc(C)c2c1-c1ccc(C#N)c2c1OCO2` [DNDI-6174], the “Microsome predicted in vivo CLplasma” value ([1]; Human) is reported as 0.86 mL/min/kg, the “In vitro Microsome CLint” value ([1]; Human, 2 independent experiments, ± standard error of estimate) is reported as 7.2 ± 1.2 µL/min/mg and the microsomal CLint at 0.5 µM ([1]; human, liver microsomes, pH 7.4, Human, 2 independent experiments, ± standard error of estimate, read-out: In vitro Microsome CLint) is reported as 6.4 ± 0.75 µL/min/mg. The K01 ([2]; Hamsters, 12.5 mg/kg, fitted) was 0.321 h⁻¹, the K10 ([2]; Hamsters, 12.5 mg/kg, fitted) was 0.336 h⁻¹ and the V/F ([2]; Hamsters, 12.5 mg/kg, fitted) was 1.57 L/kg. For the same molecule, the K01 ([2]; Hamsters, 25 mg/kg, fitted) was 0.298 h⁻¹, the K10 ([2]; Hamsters, 25 mg/kg, fitted) was 0.295 h⁻¹ and the V/F ([2]; Hamsters, 25 mg/kg, fitted) was 1.75 L/kg. The K01 ([2]; Hamsters, 50 mg/kg, fitted) was 0.660 h⁻¹, the K10 ([2]; Hamsters, 50 mg/kg, fitted) was 0.184 h⁻¹ and the V/F ([2]; Hamsters, 50 mg/kg, fitted) was 1.83 L/kg. It also gave a Cmax ([2]; hamster, plasma, po, 3.125 mg/kg, hamsters, 3.125 mg/kg bid, 5 days, simulated) of 341 ng/mL, a Cmax ([2]; hamster, plasma, po, 12.5 mg/kg, Hamsters, fitted) of 2850 ng/mL and a Cmax ([2]; hamster, plasma, po, 12.5 mg/kg, hamsters, 12.5 mg/kg bid, 5 days, simulated) of 3690 ng/mL. For the same molecule, the AUC ([2]; hamster, plasma, po, 12.5 mg/kg, hamsters, 12.5 mg/kg bid, 5 days, simulated, read-out: AUC24 ss) was 47600 ng·h/mL, the AUC ([2]; hamster, plasma, po, 12.5 mg/kg, hamsters, 12.5 mg/kg bid, 5 days, simulated, read-out: Cum AUC) was 238000 ng·h/mL and the Cmax ([2]; hamster, plasma, po, 12.5 mg/kg, hamsters, 12.5 mg/kg qd, 5 days, simulated) was 2880 ng/mL. For the same molecule, the AUC ([2]; hamster, plasma, po, 12.5 mg/kg, hamsters, 12.5 mg/kg qd, 5 days, simulated, read-out: AUC24 ss) was 23800 ng·h/mL, the AUC ([2]; hamster, plasma, po, 12.5 mg/kg, hamsters, 12.5 mg/kg qd, 5 days, simulated, read-out: Cum AUC) was 119000 ng·h/mL and the Cmax ([2]; hamster, plasma, po, 25 mg/kg, Hamsters, fitted) was 5280 ng/mL. It also gave a Cmax at 5 days ([2]; hamster, plasma, po, 25 mg/kg, hamsters, 25 mg/kg qd, 5 days, simulated) of 5330 ng/mL, an AUC ([2]; hamster, plasma, po, 25 mg/kg, hamsters, 25 mg/kg qd, 5 days, simulated, read-out: AUC24 ss) of 48600 ng·h/mL and an AUC ([2]; hamster, plasma, po, 25 mg/kg, hamsters, 25 mg/kg qd, 5 days, simulated, read-out: Cum AUC) of 243000 ng·h/mL. The Cmax ([2]; hamster, plasma, po, 50 mg/kg, Hamsters, fitted) was 15600 ng/mL, the Cmax ([2]; hamster, plasma, po, 50 mg/kg, hamsters, 50 mg/kg qd, 5 days, simulated) was 17000 ng/mL and the AUC ([2]; hamster, plasma, po, 50 mg/kg, hamsters, 50 mg/kg qd, 5 days, simulated, read-out: AUC24 ss) was 148000 ng·h/mL. It also gave an AUC at 5 days ([2]; hamster, plasma, po, 50 mg/kg, hamsters, 50 mg/kg qd, 5 days, simulated, read-out: Cum AUC) of 742000 ng·h/mL, an AUC(0-inf) [2, 3] of 23600 ng·h/mL and a CL/F [2, 3] of 8.75 mL/min/kg. The AUC(0-inf) [2, 4] was 48400 ng·h/mL, the CL/F [2, 4] was 8.58 mL/min/kg and the AUC(0-inf) [2, 5] was 140000 ng·h/mL. The CL/F [2, 5] was 5.62 mL/min/kg, the “Cmax (unbound)” value [2, 6] was 31 ng/mL and the Cmin [2, 6] was 13 ng/mL. For the same molecule, the “Cmin (unbound)” value [2, 6] was 1 ng/mL, the “AUC24 ss (unbound)” value [2, 7] was 4280 ng·h/mL and the Cav ss [2, 7] was 1980 ng/mL. The “Cav ss (unbound)” value [2, 7] was 178 ng/mL, the “Cmax (unbound)” value [2, 7] was 332 ng/mL and the Cmin [2, 7] was 238 ng/mL. For the same molecule, the “Cmin (unbound)” value [2, 7] was 21 ng/mL, the “Cum AUC (unbound)” value [2, 7] was 21400 ng·h/mL and the “AUC24 ss (unbound)” value [2, 8] was 2140 ng·h/mL. For the same molecule, the Cav ss [2, 8] was 991 ng/mL, the “Cav ss (unbound)” value [2, 8] was 89 ng/mL and the “Cmax (unbound)” value [2, 8] was 259 ng/mL. For the same molecule, the Cmin [2, 8] was 23 ng/mL, the “Cmin (unbound)” value [2, 8] was 2 ng/mL and the “Cum AUC (unbound)” value [2, 8] was 10700 ng·h/mL. The “AUC24 ss (unbound)” value [2, 9] was 4370 ng·h/mL, the Cav ss [2, 9] was 2020 ng/mL and the “Cav ss (unbound)” value [2, 9] was 182 ng/mL. For the same molecule, the “Cmax (unbound)” value [2, 9] was 480 ng/mL, the Cmin [2, 9] was 83 ng/mL and the “Cmin (unbound)” value [2, 9] was 7 ng/mL. The “Cum AUC (unbound)” value [2, 9] was 21900 ng·h/mL, the “AUC24 ss (unbound)” value [2, 10] was 13400 ng·h/mL and the Cav ss [2, 10] was 6190 ng/mL. The “Cav ss (unbound)” value [2, 10] was 557 ng/mL, the “Cmax (unbound)” value [2, 10] was 1530 ng/mL and the Cmin [2, 10] was 463 ng/mL. For the same molecule, the “Cmin (unbound)” value [2, 10] was 42 ng/mL, the “Cum AUC (unbound)” value [2, 10] was 66800 ng·h/mL and the remaining activity at 10 µM (5-HT transporter) was 69.9%. The remaining activity at 10 µM (5-HT2B) was 81.4%, the remaining activity at 10 µM (5-HT3) was 105% and the remaining activity at 10 µM (A2A) was 83.8%. It also gave a remaining activity at 10 µM (CB2) of 96.1%, a remaining activity at 10 µM (GR) of 93% and a remaining activity at 10 µM (H1) of 91.8%. For the same molecule, the remaining activity at 10 µM (H2) was 120%, the remaining activity at 10 µM (M1) was 91.5% and the remaining activity at 10 µM (N neuronal α4β2) was 100%. The remaining activity at 10 µM (α1A) was 25.1%, the remaining activity at 10 µM (β2) was 102% and the remaining activity at 10 µM (κ (KOP)) was 90.6%. For the same molecule, the remaining activity at 10 µM (μ (MOP)) was 94.3%.
